Data: US5654290A, “Polyunsaturated fatty acid based drugs” (Institut National de la Sante et de la Recherche Medicale, priority 1992, dated 1997)
One block for each compound: values may come before it.

Legend:
[1] = test system: platelets; details: cited from earlier work
[2] = test system: alpha2 -adrenergic receptor; details: platelet membranes; cited from earlier work
[3] = test system: platelets; details: concentrations which do not bring the TXA2/PGH2 receptor into play; cited from earlier work
[4] = test system: platelets; details: concentrations which do not bring the TXA2/PGH2 receptor into play; cited from earlier work; remark: listed apart in the source
[5] = test system: TXA2 /PGH2 receptor; details: cited from earlier work
[6] = test system: TXA2 /PGH2 receptor; details: whole platelets or solubilized platelet membranes; cited from earlier work
[7] = test system: liver; assay: Capture by the liver, in rats, of lyso-PCDHA and non-esterified DHA; type: in vivo; details: 20-day-old rat, intravenous; lyso-PCDHA vs non-esterified DHA
Source text: (§1) FIG. 3 represents the variation of the radio-activity recovered in the total lipids: A from the brain, B from the kidney, C from the heart and D from the liver, after injecting tritiated DHA in free form (black circle) or in the form of 2-DHA-1-lyso-PC (black triangle).
(§2) The animal studied is a 20-day-old rat in which the cerebral lipid metabolism is at its peak.
(§3) The lyso-PC's are labelled on the fatty acid and the choline, attached to albumin and administered intravenously (50). […] It therefore appears that the lyso-PCDHA's attached to albumin constitute a particularly preferred form of supply of DHA to the developing brain.

[8] = test system: brain; assay: Distribution of the radioactivity between the lipid classes of the brain after intravenous injection of lyso-PCDHA or non-esterified DHA; type: in vivo, rat; details: for radioactivity in OTHERS of the brain / radioactivity in AG of the brain / radioactivity in DG of the brain / radioactivity in LN of the brain / radioactivity in Lyso-PC of the brain / radioactivity in MG of the brain / radioactivity in PC of the brain / radioactivity in PE of the brain / radioactivity in PS of the brain / radioactivity in Pi of the brain / radioactivity in TG of the brain: injection of Lyso-PCDHA
Source text: as §2, §3

[9] = test system: heart; assay: Capture by the heart, in rats, of lyso-PCDHA and non-esterified DHA; type: in vivo; details: 20-day-old rat, intravenous; lyso-PCDHA vs non-esterified DHA
Source text: as §1, §2, §3

[10] = test system: kidney; assay: Capture by the kidney, in rats, of lyso-PCDHA and non-esterified DHA; type: in vivo; details: 20-day-old rat, intravenous; lyso-PCDHA vs non-esterified DHA
Source text: as §1, §2, §3

[11] = test system: brain; assay: Capture by the brain, in rats, of lyso-PC's; type: in vivo; details: 20-day-old rat, intravenous, attached to albumin; compared with lyso-PC's comprising 18:1, 18:2 and 20:4
Source text: as §1, §2, §3

[12] = incorporation in vitro into the platelet lipid reserves, by means of albumin

Compound: CC/C=C\C/C=C\C/C=C\C/C=C\C/C=C\CCCC(=O)O [20:5n-3, eicosapentanoic acid]
aggregability of the platelets in response to U 46.619 [1, 12]: loss of aggregability of the platelets in response to U 46.619
inhibition of platelet aggregation induced by U 46.619 ([1]; non-esterified fatty acid): competitively inhibit platelet aggregation induced by U 46.619
effect on binding of yohimbine to alpha2-adrenergic receptor [2]: do not modify binding of yohimbine
effect on platelet aggregation induced by thrombin [3]: none of these fatty acids affects the platelet aggregation
effect on platelet aggregation induced by ionophore A 23187 [4]: none of these fatty acids affects the platelet aggregation
affinity of U 46.619 for its receptor [5, 12]: decrease in the affinity of the agonist for its receptor
inhibition of specific binding of U 46.619 to washed platelets ([5]; non-esterified fatty acid): competitively inhibit
alteration of the TXA2 /PGH2 receptor [6]: specifically alter the TXA2 /PGH2 receptor

capture by the brain [11]: particularly well captured by the brain
Compound: CC/C=C\C/C=C\C/C=C\C/C=C\C/C=C\C/C=C\CCC(=O)OC(CO)COP(=O)([O-])OCC[N+](C)(C)C (stereo not shown) [lyso-PCDHA, 1-lyso-2-DHA-glycerophosphocholine]
capture by the liver [7]: do not capture the lyso-PCDHA's as effectively as the non-esterified DHA
esterification in the phosphatidylethanolamines ([8]; brain, rat, after injection): very rapidly, a differential esterification is produced in the phosphatidylethanolamines
reacylation of DHA in the phosphatidylcholines ([8]; brain, rat, first stages after the injection): low and is visible only in the first stages after the injection
radioactivity in OTHERS of the brain [8]: 3.7 % of the radioactivity of the total lipids
radioactivity in AG of the brain ([8]; 2.5 min): 15.3 % of the radioactivity of the total lipids
radioactivity in DG of the brain ([8]; 2.5 min): 10.8 % of the radioactivity of the total lipids
radioactivity in LN of the brain ([8]; 2.5 min): 29.3 % of the radioactivity of the total lipids
radioactivity in Lyso-PC of the brain ([8]; 2.5 min): 4.1 % of the radioactivity of the total lipids
radioactivity in MG of the brain ([8]; 2.5 min): 2.2 % of the radioactivity of the total lipids
radioactivity in PC of the brain ([8]; 2.5 min): 25.6 % of the radioactivity of the total lipids
radioactivity in PE of the brain ([8]; 2.5 min): 28.2 % of the radioactivity of the total lipids
radioactivity in PS of the brain ([8]; 2.5 min): 3.9 % of the radioactivity of the total lipids
radioactivity in Pi of the brain ([8]; 2.5 min): 8.9 % of the radioactivity of the total lipids
radioactivity in TG of the brain ([8]; 2.5 min): 1.0 % of the radioactivity of the total lipids
radioactivity in AG of the brain ([8]; 5 min): 21.2 % of the radioactivity of the total lipids
radioactivity in DG of the brain ([8]; 5 min): 9.3 % of the radioactivity of the total lipids
radioactivity in LN of the brain ([8]; 5 min): 35.3 % of the radioactivity of the total lipids
radioactivity in Lyso-PC of the brain ([8]; 5 min): 0.4 % of the radioactivity of the total lipids
radioactivity in MG of the brain ([8]; 5 min): 2.3 % of the radioactivity of the total lipids
radioactivity in OTHERS of the brain ([8]; 5 min): 11.4 % of the radioactivity of the total lipids
radioactivity in PC of the brain ([8]; 5 min): 17.8 % of the radioactivity of the total lipids
radioactivity in PE of the brain ([8]; 5 min): 26.3 % of the radioactivity of the total lipids
radioactivity in PS of the brain ([8]; 5 min): 5.3 % of the radioactivity of the total lipids
radioactivity in Pi of the brain ([8]; 5 min): 3.4 % of the radioactivity of the total lipids
radioactivity in TG of the brain ([8]; 5 min): 2.5 % of the radioactivity of the total lipids
radioactivity in AG of the brain ([8]; 6.5 min): 17.2 % of the radioactivity of the total lipids
radioactivity in DG of the brain ([8]; 6.5 min): 9.4 % of the radioactivity of the total lipids
radioactivity in LN of the brain ([8]; 6.5 min): 31.6 % of the radioactivity of the total lipids
radioactivity in Lyso-PC of the brain ([8]; 6.5 min): 1.2 % of the radioactivity of the total lipids
radioactivity in MG of the brain ([8]; 6.5 min): 2.7 % of the radioactivity of the total lipids
radioactivity in PC of the brain ([8]; 6.5 min): 26.2 % of the radioactivity of the total lipids
radioactivity in PE of the brain ([8]; 6.5 min): 28.1 % of the radioactivity of the total lipids
radioactivity in PS of the brain ([8]; 6.5 min): 5.3 % of the radioactivity of the total lipids
radioactivity in Pi of the brain ([8]; 6.5 min): 3.7 % of the radioactivity of the total lipids
radioactivity in TG of the brain ([8]; 6.5 min): 2.3 % of the radioactivity of the total lipids
radioactivity in AG of the brain ([8]; 15 min): 13.9 % of the radioactivity of the total lipids
radioactivity in DG of the brain ([8]; 15 min): 5.8 % of the radioactivity of the total lipids
radioactivity in LN of the brain ([8]; 15 min): 23.7 % of the radioactivity of the total lipids
radioactivity in Lyso-PC of the brain ([8]; 15 min): 0.2 % of the radioactivity of the total lipids
radioactivity in MG of the brain ([8]; 15 min): 1.8 % of the radioactivity of the total lipids
radioactivity in OTHERS of the brain ([8]; 15 min): 2.6 % of the radioactivity of the total lipids
radioactivity in PC of the brain ([8]; 15 min): 26.8 % of the radioactivity of the total lipids
radioactivity in PE of the brain ([8]; 15 min): 38.9 % of the radioactivity of the total lipids
radioactivity in PS of the brain ([8]; 15 min): 4.6 % of the radioactivity of the total lipids
radioactivity in Pi of the brain ([8]; 15 min): 3.2 % of the radioactivity of the total lipids
radioactivity in TG of the brain ([8]; 15 min): 2.3 % of the radioactivity of the total lipids
radioactivity in AG of the brain ([8]; 30 min): 11 % of the radioactivity of the total lipids
radioactivity in DG of the brain ([8]; 30 min): 4 % of the radioactivity of the total lipids
radioactivity in LN of the brain ([8]; 30 min): 17.8 % of the radioactivity of the total lipids
radioactivity in Lyso-PC of the brain ([8]; 30 min): 0 % of the radioactivity of the total lipids
radioactivity in MG of the brain ([8]; 30 min): 0.7 % of the radioactivity of the total lipids
radioactivity in OTHERS of the brain ([8]; 30 min): 3.8 % of the radioactivity of the total lipids
radioactivity in PC of the brain ([8]; 30 min): 24.1 % of the radioactivity of the total lipids
radioactivity in PE of the brain ([8]; 30 min): 46.4 % of the radioactivity of the total lipids
radioactivity in PS of the brain ([8]; 30 min): 5.0 % of the radioactivity of the total lipids
radioactivity in Pi of the brain ([8]; 30 min): 2.6 % of the radioactivity of the total lipids
radioactivity in TG of the brain ([8]; 30 min): 2.1 % of the radioactivity of the total lipids
radioactivity in AG of the brain ([8]; 60 min): 10.0 % of the radioactivity of the total lipids
radioactivity in DG of the brain ([8]; 60 min): 2.6 % of the radioactivity of the total lipids
radioactivity in LN of the brain ([8]; 60 min): 16.7 % of the radioactivity of the total lipids
radioactivity in Lyso-PC of the brain ([8]; 60 min): 0 % of the radioactivity of the total lipids
radioactivity in MG of the brain ([8]; 60 min): 0.4 % of the radioactivity of the total lipids
radioactivity in OTHERS of the brain ([8]; 60 min): 5.3 % of the radioactivity of the total lipids
radioactivity in PC of the brain ([8]; 60 min): 24.9 % of the radioactivity of the total lipids
radioactivity in PE of the brain ([8]; 60 min): 49.2 % of the radioactivity of the total lipids
radioactivity in PS of the brain ([8]; 60 min): 3.9 % of the radioactivity of the total lipids
radioactivity in Pi of the brain ([8]; 60 min): 2.6 % of the radioactivity of the total lipids
radioactivity in TG of the brain ([8]; 60 min): 1.4 % of the radioactivity of the total lipids
capture by the heart [9]: do not capture the lyso-PCDHA's as effectively as the non-esterified DHA
capture by the kidney [10]: captures the two forms of supply in essentially the same manner
